From publication PMC7540527, “Synthesis of Antiviral Perfluoroalkyl Derivatives of Teicoplanin and Vancomycin” (Chemmedchem, 2020)
Like-named read-outs stand apart in the source and are kept apart here.

Experiments:
[1] = system: herpes simplex virus type 1 (HSV-1); experiment: microbe, parasite or virus in culture; type: cell-based; details: Human alphaherpesvirus 1, HEL, read-out: Antiviral EC50 HSV‐1
[2] = system: thymidine-kinase deficient (TK-) mutant of HSV-1; experiment: microbe, parasite or virus in culture; type: cell-based, herpes simplex virus type 1; details: Human alphaherpesvirus 1, HEL, read-out: Antiviral EC50 HSV‐1/TK−
[3] = system: herpes simplex virus type 2 (HSV-2); experiment: microbe, parasite or virus in culture; type: cell-based; details: Human alphaherpesvirus 2, HEL, read-out: Antiviral EC50 HSV‐2
vaccinia virus = experiment: microbe, parasite or virus in culture; type: cell-based; details: Orthopoxvirus vaccinia, HEL, read-out: Antiviral EC50 Vaccinia
[4] = system: human adenovirus type 2 (AdV-2); experiment: microbe, parasite or virus in culture; type: cell-based; details: Human mastadenovirus C, HEL, read-out: Antiviral EC50 AdV‐2
in vitro [5] = details: human
Reovirus-1 = experiment: organism not typed; type: cell-based; details: Vero
Sindbis virus = experiment: microbe, parasite or virus in culture; type: cell-based; details: Vero
Coxsackie virus B4 [6] = experiment: microbe, parasite or virus in culture; type: cell-based; details: Enterovirus B, B4, Vero
Punta Toro virus = experiment: microbe, parasite or virus in culture; type: cell-based; details: Vero
Yellow Fever virus (17D) = experiment: microbe, parasite or virus in culture; type: cell-based; details: Vero
[7] = system: Zika virus (strain MR766); experiment: microbe, parasite or virus in culture; type: cell-based; details: Vero
Vero cells = details: African green monkey
in vitro [8] = details: African green monkey
[9] = system: Vesicular stomatitis virus; experiment: microbe, parasite or virus in culture; type: cell-based; details: HeLa, read-out: Antiviral EC50 Vesicular stomatitis virus, Visual CPE score
Coxsackie virus B4 [10] = experiment: microbe, parasite or virus in culture; type: cell-based; details: Enterovirus B, B4, HeLa, read-out: Antiviral EC50 Coxsackie virus B4, Visual CPE score
[11] = system: Respiratory syncytial virus; experiment: microbe, parasite or virus in culture; type: cell-based; details: human respiratory syncytial virus, HeLa, read-out: Antiviral EC50 Respiratory syncytial virus, Visual CPE score
in vitro [12] = details: human; remark: listed apart in the source
[13] = system: influenza A/H1N1 A/Ned/378/05; experiment: microbe, parasite or virus in culture; type: cell-based, influenza A virus; details: Influenza A virus, H1N1, MDCK
[14] = system: influenza A/H3N2 A/Victoria/361/11; experiment: microbe, parasite or virus in culture; type: cell-based, influenza A virus; details: Influenza A virus, H3N2, MDCK
[15] = system: influenza B virus B/Ned/537/05; experiment: CPE reduction assay for influenza virus in MDCK cells, influenza B; type: cell-based; details: Influenza B virus, MDCK cells
Description: The CPE reduction assay for influenza virus was described in full detail in previous publications.41 The virus strains were: A/PR/8/34 (A/H1 N1); A/Virginia/ATCC3/2009 (A/H1 N1pdm); A/HK/7/87 (A/H3 N2); B/Ned/537/05; and B/HK/5/72. On day 0, Madin‐Darby canine kidney (MDCK) cells in 96‐well plates were infected with influenza virus at a multiplicity of infection (MOI) of 0.0004 plaque forming units (PFU) per cell. After three days incubation at 35 °C, virus‐induced CPE and compound cytotoxicity were scored by microscopy, after which the data were confirmed by formazan‐based MTS cell viability assay (CellTiter 96® AQueous One Solution Cell Proliferation Assay from Promega). The antiviral effect was expressed as the compound concentration producing 50 % inhibition of the virus‐induced CPE (EC50). Compound cytotoxicity was expressed as the compound concentration causing minimal changes in cell morphology (MCC), and 50 % cytotoxic concentration (CC50) based on MTS assay.42

MDCK cells = details: dog
in vitro [16] = details: dog

Nc1ccn(C[C@@H](CO)OCP(=O)(O)O)c(=O)n1 [cidofovir]
EC50 [1]: 2.4 µM | EC50 [2]: 4.7 µM | EC50 [3]: 1 µM | EC50 (vaccinia virus): 10 µM | EC50 [4]: 6.4 µM | CC50 (in vitro [5]): > 250 µM

COc1c(C)c2c(c(O)c1C/C=C(\C)CCC(=O)O)C(=O)OC2 [Mycophenolic acid]
EC50 (Reovirus-1; read-out: Antiviral EC50 Reovirus-1, MTS): 4 µM | EC50 (Reovirus-1; read-out: Antiviral EC50 Reovirus-1, Visual CPE score): 3.3 µM | EC50 (Sindbis virus; read-out: Antiviral EC50 Sindbis virus, MTS): 4 µM | EC50 (Sindbis virus; read-out: Antiviral EC50 Sindbis virus, Visual CPE score): 5.7 µM | EC50 (Coxsackie virus B4 [6]; read-out: Antiviral EC50 Coxsackie virus B4, MTS): > 100 µM | EC50 (Coxsackie virus B4 [6]; read-out: Antiviral EC50 Coxsackie virus B4, Visual CPE score): > 100 µM | EC50 (Punta Toro virus; read-out: Antiviral EC50 Punta Toro virus, MTS): 10.6 µM | EC50 (Punta Toro virus; read-out: Antiviral EC50 Punta Toro virus, Visual CPE score): > 100 µM | EC50 (Yellow Fever virus (17D); read-out: Antiviral EC50 Yellow Fever virus, MTS): 1.4 µM | EC50 (Yellow Fever virus (17D); read-out: Antiviral EC50 Yellow Fever virus, Visual CPE score): > 100 µM | EC50 ([7]; read-out: Antiviral EC50 Zika virus, MTS): 1.5 µM | EC50 ([7]; read-out: Antiviral EC50 Zika virus, Visual CPE score): 0.8 µM | Cytotoxicity MCC (Vero cells): > 100 | CC50 (in vitro [8]): > 100 µM

Cc1cn([C@H]2C[C@H](F)[C@@H](CO)O2)c(=O)[nH]c1=O [alovudine]
EC50 [4]: 5.9 µM | CC50 (in vitro [5]): > 250 µM

Nc1nc2c(ncn2COCCO)c(=O)[nH]1 [acyclovir]
EC50 [1]: 2.4 µM | EC50 [3]: 0.05 µM | EC50 (vaccinia virus): > 250 µM | CC50 (in vitro [5]): > 250 µM

NC(=O)c1ncn([C@@H]2O[C@H](CO)[C@@H](O)[C@H]2O)n1 [Ribavirin]
EC50 [9]: 87 µM | EC50 (Coxsackie virus B4 [10]): 126 µM | EC50 [11]: 5 µM | CC50 (in vitro [12]): > 250 µM

CC(=O)N[C@H]1[C@H]([C@H](O)[C@H](O)CO)OC(C(=O)O)=C[C@@H]1N=C(N)N [zanamivir]
EC50 ([13]; read-out: Antiviral EC50 A/H1N1 CPE): 1.5 µM | EC50 ([13]; read-out: Antiviral EC50 A/H1N1 MTS): 3.1 µM | EC50 ([14]; read-out: Antiviral EC50 A/H3N2 CPE): 20 µM | EC50 ([14]; read-out: Antiviral EC50 A/H3N2 MTS): 9 µM | EC50 ([15]; B/Ned/537/05, MTS assay, read-out: Antiviral EC50 Influenza B MTS): 1.7 µM | EC50 ([15]; B/Ned/537/05, visual CPE scoring, read-out: Antiviral EC50 Influenza B CPE): 2 µM | Cytotoxicity MCC (minimum cytotoxic concentration) (MDCK cells): >100 µM | CC50 (in vitro [16]): > 100 µM
